According to paper PMC8306876, “A New N-Substituted 1H-Isoindole-1,3(2H)-Dione Derivative—Synthesis, Structure and Affinity for Cyclooxygenase Based on In Vitro Studies and Molecular Docking” (International Journal of Molecular Sciences, 2021):
Several values for one entry are separate records, joined by “and”; a condition that tells them apart may be missing. Equal entries are not always repeated. Marks after values point to notes of the source that are not given here.

Assays:
COX-1 = target: T1, COX-1 (Ovis aries, UniProt P05979); test: Cyclooxygenase inhibition assay (Cayman kit No. 701050, COX peroxidase activity), COX-1; assay type: biochemical; conditions: incubation for 2 min; mean (SD); n = 3
T1 construct: purchased Cayman 701050
T1 sequence (P05979 25-600): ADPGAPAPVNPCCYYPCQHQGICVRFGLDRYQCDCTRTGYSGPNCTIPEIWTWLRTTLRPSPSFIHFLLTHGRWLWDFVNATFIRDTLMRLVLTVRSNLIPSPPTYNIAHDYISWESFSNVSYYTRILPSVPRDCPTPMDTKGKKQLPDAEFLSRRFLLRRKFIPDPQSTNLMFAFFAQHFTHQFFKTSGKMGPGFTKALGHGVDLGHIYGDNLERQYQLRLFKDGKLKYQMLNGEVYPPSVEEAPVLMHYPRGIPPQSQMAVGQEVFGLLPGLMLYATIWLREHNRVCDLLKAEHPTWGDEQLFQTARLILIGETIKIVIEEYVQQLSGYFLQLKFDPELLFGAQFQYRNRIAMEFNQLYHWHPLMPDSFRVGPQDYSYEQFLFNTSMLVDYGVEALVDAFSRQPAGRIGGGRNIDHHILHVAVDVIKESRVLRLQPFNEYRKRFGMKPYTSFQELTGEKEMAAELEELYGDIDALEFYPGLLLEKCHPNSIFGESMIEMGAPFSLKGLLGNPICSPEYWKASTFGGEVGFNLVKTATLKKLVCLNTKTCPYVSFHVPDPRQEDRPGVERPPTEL
Procedure: Cayman kit No. 701050 was used to evaluate the COX peroxidase activity of all compounds at a concentration of 100 µM. Absorbance was measured with a microplate reader at 590 nm. Concentrations at which 50% inhibition of enzyme activity occurred were calculated separately for COX-1 and COX-2 (IC50). Ratios of IC50 values (COX-2/COX-1) were also calculated

COX-2 = target: T2, COX-2 (Homo sapiens, UniProt P35354); test: Cyclooxygenase inhibition assay (Cayman kit No. 701050, COX peroxidase activity), COX-2; assay type: biochemical; conditions: for IC50: incubation for 2 min, mean (SD), n = 3; for Ratio: COX-2/COX-1: ratio of IC50 values (COX-2/COX-1)
T2 construct: purchased Cayman 701050
T2 sequence (P35354 18-604): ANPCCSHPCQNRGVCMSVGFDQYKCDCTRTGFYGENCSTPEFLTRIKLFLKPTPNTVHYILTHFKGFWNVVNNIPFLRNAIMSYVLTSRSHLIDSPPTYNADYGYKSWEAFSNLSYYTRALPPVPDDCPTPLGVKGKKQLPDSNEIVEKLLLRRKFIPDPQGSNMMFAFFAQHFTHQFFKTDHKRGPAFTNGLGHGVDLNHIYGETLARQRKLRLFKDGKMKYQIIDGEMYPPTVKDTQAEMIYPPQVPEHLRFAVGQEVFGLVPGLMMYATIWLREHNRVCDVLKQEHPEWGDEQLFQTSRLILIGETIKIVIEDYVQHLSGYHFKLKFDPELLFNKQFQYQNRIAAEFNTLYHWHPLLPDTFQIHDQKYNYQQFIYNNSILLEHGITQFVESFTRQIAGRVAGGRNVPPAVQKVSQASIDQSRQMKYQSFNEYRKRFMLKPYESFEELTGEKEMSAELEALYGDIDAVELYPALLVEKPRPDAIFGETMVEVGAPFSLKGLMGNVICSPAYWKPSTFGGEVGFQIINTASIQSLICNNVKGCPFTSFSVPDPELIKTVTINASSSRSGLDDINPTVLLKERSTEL
Procedure: Absorbance was measured with a microplate reader at 590 nm. […] Ratios of IC50 values (COX-2/COX-1) were also calculated

NHDF cells [1] = test: RNS (NO) level, Griess reagents after LPS preincubation; assay type: cell-based; conditions: 100 µM compound for 1 h after 24 h with 50 µM LPS; (SD) n = 6
Procedure: (§1) The ROS and RNS were evaluated using DCF–DA assay and Griess reagents, respectively. First, the cells were incubated with 50 µM LPS for 24 h to induce cell stress. Then, after the cells were washed, the 100 µM tested compounds were added for 1 h. Finally, the 50 µL supernatant was transferred to a new plate and added 50 µL of mixture A (1% sulfanilamide in 5% phosphoric acid) and B (0.1% N-(1-Naphthyl)ethylenediamine dihydrochloride) Griess reagents in a volume ratio 1:1 for 20 min in the dark. After that time, the absorbance was measured at 540 nm using a microplate reader. Simultaneously, the rest of the supernatant was removed from the above cell cultures, and 25 µM DCF–DA solution in MEM (without serum and phenol red) was added and left at 37 °C for 1 h and finally, determined fluorometrically with excitation at 485 nm and emission at 535 nm using a microplate reader.
(§2) The NO level was presented as concentration calculated using a standard curve (prepared in parallel with the conducted research). The ROS level was shown as ratio E/E0, where E0 is fluorescence with the positive control (cells incubated with 50 µM LPS) and E is a fluorescence with tested compound at 100 µM. Finally, the DNA damage was calculated as the ratio of cell nucleus diameter to halo diameter (a measure of DNA damage).
(§3) All statistical analysis performed were compared to the control—healthy cells (MTT assay), and positive control (incubated with 50 µM LPS) for DCF–DA, Griess, and DNA damaged. The data have a normal distribution and equality of variance, so ANOVA and post-hoc Scheffe methods were performed. The significance level was set at p < 0.05.

NHDF cells [2] = test: DNA damage (chromatin relaxation, nucleus/halo diameter) after LPS preincubation; assay type: cell-based; conditions: ratio of cell nucleus diameter to halo diameter; 1 h with compound after 24 h with 50 µM LPS; (SD) n = 6
Procedure: However, the cells were detached at the surface after 1h of incubation with the tested compound for evaluating DNA damage. The cells were then subjected to an analogous procedure as described in Grajzer et al..
as §2, §3

NHDF cells [3] = test: Cell viability, MTT assay; assay type: cell-based; conditions: Homo sapiens, NHDF cell cultures, 24 h incubation, read-out: Cell Viability IC50 (µM) (SD)
Procedure: The NHDF cells obtained from ATCC (Manasas, VA, USA) were incubated with DMEM without phenol red supplemented with 10% fetal bovine serum (FBS), 2 mM L-glutamine, 1.25 µg/mL amphotericin B and 100 µg/mL gentamicin at 37 °C in a humidified 5% CO2/95% air atmosphere incubator. The cell culture was examined under the microscope twice a week, and cells were passaged if confluence was greater than 70% or the medium was replaced with fresh medium.
The […] were prepared by dissolving compounds in DMSO and then stored at −20 °C for up to 6 months. Before the biological experimental, the working solution was dissolved in the medium in the concentration range of 10, 50, and 100 µM.
To evaluated cell viability, an MTT assay was performed. After incubation of cells with the tested compounds for 24 h, the supernatant was removed, and 1 mg/mL MTT solution was applied for 2 h. Next, the formazan was dissolved with propanol for 30 min, and absorbance was measured at 570 nm using a microplate reader. The results are presented as IC50.

NHDF cells [4] = test: ROS level, DCF-DA assay after LPS preincubation; assay type: cell-based; conditions: 100 µM compound after LPS preincubation
Procedure: as §1, §2, §3

Row | SMILES | IC50 (COX-1) [µM] | IC50 (COX-2) [µM] | Ratio: COX-2/COX-1 (COX-2) | melting point [°C] | NO Level (pg/mL) (NHDF cells [1]) | DNA Damage (NHDF cells [2]) | IC50 (NHDF cells [3]) [µM] | scavenging of ROS compared to control (NHDF cells [4])
1 | O=C1c2ccccc2C(=O)N1CN1CCN(c2cccc(C(F)(F)F)c2)CC1 [Compound C] | 104 | 70.3 | 0.67 | 147 to 148 | 8.2 (0.03) * pg/mL | 23.2 (0.07) * |  | 
2 | O=C1c2ccccc2C(=O)N1CN1CCN(c2ccccc2)CC1 [A, N-[(4-phenyl-1-piperazinyl)methyl]-1H-isoindole-1,3(2H)-dione] | 238 | 107 | 0.45 | 160 to 161 | 6.4 (0.14) pg/mL | 15.2 (0.04) * |  | 
3 | O=C1c2ccccc2C(=O)N1CN1CCN(C(c2ccccc2)c2ccccc2)CC1 [Compound D, N-[(4-(diphenyl-methyl)-1-piperazinyl)methyl]-1H-isoindole-1,3(2H)-dione] | 66.2 | 72.8 | 1.10 | 206 to 207 | 7.4 (0.12) pg/mL | 17.3 (0.04) * | 90.3 | 
4 | COc1ccccc1N1CCN(CN2C(=O)c3ccccc3C2=O)CC1 [B, N-[(4-(2-methoxyphenyl)-1-piperazinyl)methyl]-1H-isoindole-1,3(2H)-dione] | 71 | 68.5 | 1.10 and 0.96 | 134 to 135 |  | 19.6 (0.09) * |  | 

Further lines, with some results ahead:

Row | IC50 (COX-1) [µM] | IC50 (COX-2) [µM] | Ratio: COX-2/COX-1 (COX-2) | melting point [°C] | SMILES | NO Level (pg/mL) (NHDF cells [1]) | DNA Damage (NHDF cells [2]) | IC50 (NHDF cells [3]) [µM] | scavenging of ROS compared to control (NHDF cells [4])
5 | 76.7 | 53.4 | 0.70 | 180 | O=C(CN1C(=O)c2ccccc2C1=O)N1CCN(c2ccccc2)CC1 [E, 2-[2-oxo-2-(4-phenyl-1-piperazinyl)ethyl]-1H-isoindole-1,3(2H)-dione] | 5.3 (0.07) * pg/mL | 18.4 (0.07) * |  | 
6 | 171 | 47.6 | 0.28 | 206 to 208 | O=C(CN1C(=O)c2ccccc2C1=O)N1CCN(c2cccc(C(F)(F)F)c2)CC1 [F, 2-{2-oxo-2-[4-(3-trifluoromethyl)-phenyl-1-piperazinyl]ethyl}-1H-isoindole-1,3(2H)-dione] | 9.1 (0.07) pg/mL | 20.1 (0.03) * |  | 
7 | 176 | 43.8 | 0.25 | 155 to 156 | COc1cccc(N2CCN(C(=O)CN3C(=O)c4ccccc4C3=O)CC2)c1 [Compound H, 2-{2-oxo-2-[4-(3-methoxy)-phenyl-1-piperazinyl]ethyl}-1H-isoindole-1,3(2H)-dione] |  | 17.1 (0.04) * | 94.1 | approximately 29.0%
8 | 94.4 | 46.2 | 0.49 | 204 to 207 | COc1ccc(N2CCN(C(=O)CN3C(=O)c4ccccc4C3=O)CC2)cc1 [Compound I, 2-{2-oxo-2-[4-(4-methoxy)-phenyl-1-piperazinyl]ethyl}-1H-isoindole-1,3(2H)-dione] |  | 19.2 (0.08) * | 93.3 | approximately 29.0%
9 | 101 | 65.8 |  | 152 to 154 | COc1ccccc1N1CCN(C(=O)CN2C(=O)c3ccccc3C2=O)CC1 [G, 2-{2-oxo-2-[4-(2-methoxy)-phenyl-1-piperazinyl]ethyl}-1H-isoindole-1,3(2H)-dione] |  | 18.7 (0.07) * | 96.8 | approximately 29.0%
